Source: the supplement of paper PMC10307832

How the values were obtained:
Assay in all cases: relative viability (nuclei count vs DMSO), 5 days (fraction); higher = more cells survive
Vandetanib + Decitabine = compound: COc1cc2/c(=N/c3ccc(Br)cc3F)nc[nH]c2cc1OCC1CCN(C)CC1 [Vandetanib] + Nc1ncn([C@H]2C[C@H](O)[C@@H](CO)O2)c(=O)n1 [Decitabine] (partner 2 µM)
Outline: (§1)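 Cells from lung cancer lines were seeded into 1536-well plates and, one day later, dosed by pin tool. Treatments were either a single drug or a fixed dose of an anchor drug with five library-drug doses (not always all listed) in √10 steps. After 5 days, nuclei were stained in a one-step fixation (final 0.05% Triton X-100, 1% formaldehyde, 1 ug/ml Hoechst) and counted on 4× images, and relative viability is the treated-to-vehicle nuclei ratio, as the median of duplicate plates.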

Vandetanib + Alpelisib = compound: COc1cc2/c(=N/c3ccc(Br)cc3F)nc[nH]c2cc1OCC1CCN(C)CC1 [Vandetanib] + Cc1nc(NC(=O)N2CCC[C@H]2C(N)=O)sc1-c1ccnc(C(C)(C)C(F)(F)F)c1 [Alpelisib] (partner 2 µM)
Outline: as §1

NVP-TAE684 + Tozasertib = compound: COc1cc(N2CCC(N3CCN(C)CC3)CC2)ccc1Nc1ncc(Cl)c(Nc2ccccc2S(=O)(=O)C(C)C)n1 [NVP-TAE684] + Cc1cc(Nc2cc(N3CCN(C)CC3)nc(Sc3ccc(NC(=O)C4CC4)cc3)n2)n[nH]1 [Tozasertib] (partner 0.1 µM)
Outline: as §1

Vandetanib + Pictilisib = compound: COc1cc2/c(=N/c3ccc(Br)cc3F)nc[nH]c2cc1OCC1CCN(C)CC1 [Vandetanib] + CS(=O)(=O)N1CCN(Cc2cc3nc(-c4cccc5[nH]ncc45)nc(N4CCOCC4)c3s2)CC1 [Pictilisib] (partner 1 µM)
Outline: as §1

Cell Line	relative viability (Vandetanib + Decitabine; first compound 0.02 µM)	relative viability (Vandetanib + Decitabine; first compound 0.06325 µM)	relative viability (Vandetanib + Decitabine; first compound 0.2 µM)	relative viability (Vandetanib + Decitabine; first compound 0.6325 µM)	relative viability (Vandetanib + Decitabine; first compound 2 µM)	relative viability (Vandetanib + Alpelisib; first compound 0.02 µM)	relative viability (Vandetanib + Alpelisib; first compound 0.06325 µM)	relative viability (Vandetanib + Alpelisib; first compound 0.2 µM)	relative viability (Vandetanib + Alpelisib; first compound 0.6325 µM)	relative viability (Vandetanib + Alpelisib; first compound 2 µM)	relative viability (NVP-TAE684 + Tozasertib; first compound 0.2 µM)	relative viability (NVP-TAE684 + Tozasertib; first compound 0.6325 µM)	relative viability (NVP-TAE684 + Tozasertib; first compound 2 µM)	relative viability (Vandetanib + Pictilisib; first compound 0.02 µM)	relative viability (Vandetanib + Pictilisib; first compound 0.06325 µM)	relative viability (Vandetanib + Pictilisib; first compound 0.2 µM)	relative viability (Vandetanib + Pictilisib; first compound 0.6325 µM)	relative viability (Vandetanib + Pictilisib; first compound 2 µM)
NCI-H1355	0.351	0.357	0.369	0.339	0.363	0.811	0.772	0.466	0.958	0.822	0.521	0.471	0.301	0.438	0.367	0.425	0.496	0.482
HCC-827	0.361	0.302	0.335	0.191	0.152	1.02	0.986	0.752	0.233	0.167	0.462	0.41	0.715	0.816	1.02	0.864	0.664	0.355
NCI-H1944	0.411	0.489	0.551	0.463	0.447	0.781	0.81	0.807	0.757	0.744	0.271	0.248	0.225	0.328	0.345	0.339	0.345	0.334
NCI-H2405	0.749	0.687	0.747	0.8	0.718	0.813	0.405	0.733	0.958	0.677	0.742	0.664	0.35	0.535	0.264	0.44	0.45	0.222
NCI-H650	0.354	0.324	0.322	0.351	0.329	1.13	0.998	1.08	1.04	0.905	0.669	0.69	0.498	0.809	0.849	0.884	0.908	0.811
HCC-366	0.291	0.355	0.354	0.332	0.347	0.44	0.289	0.328	0.528	0.226	0.108	0.124	0.0322	0.146	0.141	0.202	0.112	0.112
NCI-H838	0.489	0.399	0.503	0.457	0.451	0.98	0.957	0.991	1.04	1.05	0.311	0.233	0.226	0.461	0.357	0.457	0.426	0.415
NCI-H520	0.496	0.483	0.429	0.495	0.502	0.832	0.924	1.04	0.868	0.921	0.408	0.466	0.358	0.289	0.258	0.245	0.345	0.263
NCI-H358	0.181	0.203	0.208	0.232	0.19	0.741	0.733	0.175	0.533	0.385	0.0952	0.0896	0.0684	0.285	0.328	0.331	0.316	0.241
HOP-62	0.244	0.267	0.208	0.202	0.249	0.814	0.836	0.746	0.972	0.993	0.397	0.386	0.294	0.608	0.504	0.669	0.495	0.734
NCI-H2170	0.44	0.478	0.472	0.458	0.455	0.782	0.799	0.746	0.805	0.781	0.735	0.632	0.543	0.328	0.288	0.267	0.28	0.31
NCI-H1651	0.609	0.583	0.572	0.628	0.45	0.912	0.905	0.953	1.02	0.837	0.931	0.695	0.576	0.621	0.519	0.478	0.528	0.374
NCI-H460	0.459	0.446	0.338	0.532	0.49	0.503	0.556	0.0233	0.434	0.419	0.671	0.498	0.4	0.351	0.359	0.349	0.371	0.331
NCI-H1734	0.495	0.494	0.537	0.526	0.513	0.673	0.684	0.737	0.756	0.678	0.283	0.261	0.196	0.43	0.435	0.479	0.449	0.43
NCI-H1915	0.245	0.255	0.274	0.263	0.248	0.964	1.05	1.04	1.08	1.05	0.487	0.415	0.492	0.858	0.901	0.946	0.944	0.888
NCI-H661	0.536	0.556	0.527	0.46	0.446	0.602	0.565	0.604	0.441	0.582	0.373	0.341	0.352	0.381		0.373	0.382	0.347
NCI-H1975	0.399	0.401	0.422	0.419	0.387	0.583	0.573	0.597	0.63	0.477	1.01	0.732	0.206	0.285	0.26	0.296	0.27	0.301
NCI-H2087	0.364	0.379	0.281	0.286	0.233	0.953	1.17	1.28	1.04	1.07	0.22	0.262	0.166	1	0.694	0.922	0.935	0.964
